Laboratory results: US8835458B2 (Hanmi Science Co., Ltd, priority 2010, dated 2014)
Where a name gives a salt, the structure may show the parent alone. Read-outs that look alike come from different tables or passages of the source.

Key:
[1] = system: MDA-MB-231 breast cancer cell lines; experiment: Evaluation of inhibition on cell growth (MTS); format: cell-based; details: Homo sapiens, MDA-MB-231, 120 hours
Procedure: (§1) MDA-MB-231 breast cancer cell lines (ATCC #HTB-26) and BxPC-3 pancreas cancer cell lines (ATCC #CRL 1687), which have been reported to express XIAP, were obtained from ATCC (American type culture collection; Rockville, Md.). MDA-MB-231 cell lines were incubated in L-15 medium supplemented with 10% FBS and 1% penicillin/streptomycin (Gibco BRL) at a T-75 cm^2 growth flask. In addition, BxPC-3 cell lines were incubated in RPMI medium supplemented with 10% FBS and 1% penicillin/streptomycin. For experiments of toxicity to normal cells, fibroblasts Hs27 (ATCC #CRL 1634) and Balb/c3t3 (ATCC #CCL 163) were used. The various cell lines were transferred into 96-well plates at a density of 3,000˜5,000 cells/100 μL, and cultured for 24 hours under conditions of 37° C., 5% CO2, 95% air, and 100% relative humidity (MDA-MB-231 cells were cultured under atmospheric conditions). The cells were treated with 10 μM˜0.1 nM of test compounds, and MDA-MB-231, BxPC-3, and normal cell lines were cultured for 120, 96, and 72 hours, respectively.
(§2) Cell viabilities of MDA-MB-231 cell lines were measured at an absorbance of 490 nm using CellTiter 96™ AQueous One Solution Cell proliferation Assay (MTS, Promega), and cell viabilities of BxPC-3 and normal cell lines were measured by fixing cells with 10% TCA (trichloroacetic acid), staining with SRB (sulforhodamine B), and measuring at 540 nm. From the values, GI50 values in which test compounds reduce the growth of cancer cells by 50% were calculated. The growth rates of cancer cells were calculated from following Equation 1 or 2. [(Ti−Tz)/(C−Tz)]×100 (for Ti>=Tz) [Equation 1] [(Ti−Tz)/Tz]×100 (for Ti<Tz) [Equation 2] In Equations 1 and 2, Tz refers to a density of untreated cells, which is an absorbance in 0% cell growth groups. C refers to a density of cells cultured by adding only medium, and Ti refers to a density of cells treated with test compounds.
(§3) GI50 value is the concentration of a test compound when the value of Equation 1 is 50, which indicates the concentration of test compound required to inhibit the cancer cells by 50%. On each measurement, test compounds were compared with a control.
(§4) The activity value of each compound (GI50 value) was shown in Table 5, and an IAP antagonist was used as a control.
(§5) In the activity measurement on MDA-MB-231 breast cancer cell lines, the values were represented as “***” for 100 nM or less, “**” for over 100 nM to below 1,000 nM, and “*” for 1,000 nM or more. In the measurement on normal cell lines, Balb/C and Hs27, the values were represented as “+++” for 10,000 nM or more, “++” for over 5,000 nM to below 10,000 nM, and “+” for 5,000 nM or less.

[2] = Toxicity to normal cells (SRB); format: cell-based, mouse; details: mouse, Balb/c3t3 fibroblasts (normal cell line), read-out: BalB/C (GI50)
Procedure: as §1, §2, §3, §4, §5

[3] = Toxicity to normal cells (SRB); format: cell-based, human; details: human, Hs27 fibroblasts (normal cell line)
Procedure: as §1, §2, §3, §4, §5

SMILES: CN[C@@H](C)C(=O)N[C@H](C(=O)N1CCC[C@H]1C(=O)Nc1cc2c(Nc3ccc4c(c3)CCC4)ncnc2cc1OC)C(C)(C)C [Example 52, (S)—N-(4-(2,3-dihydro-1H-inden-5-ylamino)-7-methoxyquinazolin-6-yl)-1-((S)-3,3-dimethyl-2-((S)-2-(methylamino)propanamido)butanoyl)pyrrolidine-2-carboxamide hydrochloride]
- GI50 [1]: ≤ 0.1 µM
- GI50 at 72 h [2]: > 10 µM
- GI50 at 72 h [3]: > 10 µM

SMILES: CN[C@@H](C)C(=O)N[C@H](C(=O)N1CCC[C@H]1C(=O)Nc1cc2c(Nc3ccc(N4CCN(C)CC4)cc3)ncnc2cc1OC)C(C)(C)C [Example 67, (S)-1-((S)-3,3-dimethyl-2-((S)-2-(methylamino)propanamido)butanoyl)-N-(7-methoxy-4-(4-(4-methylpiperazin-1-yl)phenylamino)quinazolin-6-yl)pyrrolidine-2-carboxamide dihydrochloride]
- GI50 [1]: ≤ 0.1 µM
- GI50 at 72 h [2]: > 10 µM
- GI50 at 72 h [3]: > 10 µM

SMILES: CN[C@@H](C)C(=O)N[C@H](C(=O)N1CCC[C@H]1C(=O)Nc1cc2c(Nc3ccccc3C)ncnc2cc1OC)C(C)(C)C [Example 27, (S)—N-(4-(o-toluidino)-7-methoxyquinazolin-6-yl)-1-((S)-3,3-dimethyl-2-((S)-2-(methylamino)propanamido)butanoyl)pyrrolidine-2-carboxamide hydrochloride]
- GI50 [1]: ≤ 0.1 µM
- GI50 at 72 h [2]: > 10 µM
- GI50 at 72 h [3]: > 10 µM

SMILES: CN[C@@H](C)C(=O)N[C@H](C(=O)N1CCC[C@H]1C(=O)Nc1cc2c(Nc3ccc(F)c(Cl)c3F)ncnc2cc1O[C@H]1CCOC1)C(C)(C)C [Example 14, (S)—N-(4-(3-chloro-2,4-difluorophenylamino)-7-((S)-tetrahydrofuran-3-yloxy)quinazolin-6-yl)-1-((S)-3,3-dimethyl-2-((S)-2-(methylamino)propanamido)butanoyl)pyrrolidine-2-carboxamide hydrochloride]
- GI50 [1]: ≤ 0.1 µM
- GI50 at 72 h [2]: > 10 µM
- GI50 at 72 h [3]: > 10 µM

SMILES: CN[C@@H](C)C(=O)N[C@H](C(=O)N1CCC[C@H]1C(=O)Nc1cc2c(Nc3cnc4ccccc4c3)ncnc2cc1OC)C(C)(C)C [Example 62, (S)-1-((S)-3,3-dimethyl-2-((S)-2-(methylamino)propanamido)butanoyl)-N-(7-methoxy-4-(quinoline-3-ylamino)quinazolin-6-yl)pyrrolidine-2-carboxamide dihydrochloride]
- GI50 [1]: 0.1 to 1 µM
- GI50 at 72 h [2]: > 10 µM
- GI50 at 72 h [3]: > 10 µM

SMILES: CN[C@@H](C)C(=O)N[C@H](C(=O)N1CCC[C@H]1C(=O)Nc1ccc2ncnc(Nc3cccc(Cl)c3F)c2c1)C(C)(C)C [Example 4, (S)—N-(4-(3-chloro-2-fluorophenylamino)quinazolin-6-yl)-1-((S)-3,3-dimethyl-2-((S)-2-(methylamino)propanamido)butanoyl)pyrrolidine-2-carboxamide hydrochloride]
- GI50 [1]: 0.1 to 1 µM
- GI50 at 72 h [2]: > 10 µM
- GI50 at 72 h [3]: > 10 µM

SMILES: CN[C@@H](C)C(=O)N[C@H](C(=O)N1CCC[C@H]1C(=O)Nc1cc2c(Nc3ccc(N4CCN(C)CC4)c(Cl)c3)ncnc2cc1OC)C(C)(C)C [Example 86, (S)—N-(4-((3-chloro-4-(4-methylpiperazin-1-yl)phenyl)amino)-7-methoxyquinazolin-6-yl)-1-((S)-3,3-dimethyl-2-((S)-2-(methylamino)propanamido)butanoyl)pyrrolidine-2-carboxamide hydrochloride]
- GI50 [1]: ≤ 0.1 µM
- GI50 at 72 h [3]: > 10 µM

SMILES: CN[C@@H](C)C(=O)N[C@H](C(=O)N1CCC[C@H]1C(=O)Nc1cc2c(Nc3ccc(OCc4ccccn4)c(Cl)c3)ncnc2cc1OC)C(C)(C)C [Example 102, (S)—N-(4-((3-chloro-4-(pyridin-2-ylmethoxy)phenyl)amino)-7-methoxyquinazolin-6-yl)-1-((S)-3,3-dimethyl-2-((S)-2-(methylamino)propanamido)butanoyl)pyrrolidine-2-carboxamide hydrochloride]
- GI50 [1]: ≤ 0.1 µM
- GI50 at 72 h [3]: > 10 µM

SMILES: CCN(CC)c1ccc(Nc2ncnc3cc(OC)c(NC(=O)[C@@H]4CCCN4C(=O)[C@@H](NC(=O)[C@H](C)NC)C(C)(C)C)cc23)cc1Cl [Example 99, (S)—N-(4-((3-chloro-4-(diethylamino)phenyl)amino)-7-methoxyquinazolin-6-yl)-1-((S)-3,3-dimethyl-2-((S)-2-(methylamino)propanamido)butanoyl)pyrrolidine-2-carboxamide hydrochloride]
- GI50 [1]: ≤ 0.1 µM
- GI50 at 72 h [3]: > 10 µM

SMILES: CN[C@@H](C)C(=O)N[C@H](C(=O)N1CCC[C@H]1C(=O)Nc1cc2c(Nc3ccc(Cn4ccnc4)cc3)ncnc2cc1OC)C(C)(C)C [Example 111, (S)—N-(4-((4-((1H-imidazol-1-yl)methyl)phenyl)amino)-7-methoxyquinazolin-6-yl)-1-((S)-3,3-dimethyl-2-((S)-2-(methylamino)propanamido)butanoyl)pyrrolidine-2-carboxamide hydrochloride]
- GI50 [1]: 0.1 to 1 µM
- GI50 at 72 h [3]: > 10 µM

SMILES: CN[C@@H](C)C(=O)N[C@H](C(=O)N1CCC[C@H]1C(=O)Nc1cc2c(Nc3ccc(N4CCN(C5CCN(C)CC5)CC4)cc3)ncnc2cc1OC)C(C)(C)C [Example 110, hydrochloride]
- GI50 [1]: ≤ 0.1 µM
- GI50 at 72 h [3]: > 10 µM

SMILES: CN[C@@H](C)C(=O)N[C@H](C(=O)N1CCC[C@H]1C(=O)Nc1cc2c(Nc3ccc(N4CCCCC4)c(Cl)c3)ncnc2cc1OC)C(C)(C)C [Example 96, (S)—N-(4-((3-chloro-4-(piperidin-1-yl)phenyl)amino)-7-methoxyquinazolin-6-yl)-1-((S)-3,3-dimethyl-2-((S)-2-(methylamino)propanamido)butanoyl)pyrrolidine-2-carboxamide hydrochloride]
- GI50 [1]: ≤ 0.1 µM
- GI50 at 72 h [3]: > 10 µM

SMILES: CN[C@@H](C)C(=O)N[C@H](C(=O)N1CCC[C@H]1C(=O)Nc1cc2c(NC3CCC(N4CCC(C)CC4)CC3)ncnc2cc1OC)C(C)(C)C (stereo partly drawn) [Example 107, (S)-1-((S)-3,3-dimethyl-2-((S)-2-(methylamino)propanamido)butanoyl)-N-(7-methoxy-4-((4-(4-methylpiperidin-1-yl)cyclohexyl)amino)quinazolin-6-yl)pyrrolidine-2-carboxamide hydrochloride]
- GI50 [1]: 0.1 to 1 µM
- GI50 at 72 h [3]: > 10 µM

SMILES: CN[C@@H](C)C(=O)N[C@H](C(=O)N1CCC[C@H]1C(=O)Nc1cc2c(Nc3ccc(N4CCC(N5CCCCC5)CC4)cc3)ncnc2cc1OC)C(C)(C)C [Example 103, (S)—N-(4-((4-([1,4′-bipiperidine]-1′-yl)phenyl)amino)-7-methoxyquinazolin-6-yl)-1-((S)-3,3-dimethyl-2-((S)-2-(methylamino)propanamido)butanoyl)pyrrolidine-2-carboxamide hydrochloride]
- GI50 [1]: ≤ 0.1 µM
- GI50 at 72 h [3]: > 10 µM

SMILES: CN[C@@H](C)C(=O)N[C@H](C(=O)N1CCC[C@H]1C(=O)Nc1cc2c(NCC3CCCCC3)ncnc2cc1OC)C(C)(C)C [Example 77, (S)—N-(4-(cyclohexylmethyl)amino)-7-methoxyquinazolin-6-yl)-1-((S)-3,3-dimethyl-2-((S)-2-(methylamino)propanamido)butanoyl)pyrrolidine-2-carboxamide hydrochloride]
- GI50 [1]: ≤ 0.1 µM
- GI50 at 72 h [3]: > 10 µM

SMILES: CN[C@@H](C)C(=O)N[C@H](C(=O)N1CCC[C@H]1C(=O)Nc1cc2c(Nc3ccc(C4CCCN(C)C4)cc3)ncnc2cc1OC)C(C)(C)C (stereo partly drawn) [Example 109, (2S)-1-((S)-3,3-dimethyl-2-((S)-2-(methylamino)propanamido)butanoyl)-N-(7-methoxy-4-((4-(1-methylpiperidin-3-yl)phenyl)amino)quinazolin-6-yl)pyrrolidine-2-carboxamide hydrochloride]
- GI50 [1]: ≤ 0.1 µM
- GI50 at 72 h [3]: > 10 µM

SMILES: CN[C@@H](C)C(=O)N[C@H](C(=O)N1CCC[C@H]1C(=O)Nc1cc2c(Nc3ccc(F)cc3Br)ncnc2cc1OC)C(C)(C)C [Example 82, (S)—N-(4-((2-bromo-4-fluorophenyl)amino)-7-methoxyquinazolin-6-yl)-1-((S)-3,3-dimethyl-2-((S)-2-(methylamino)propanamido)butanoyl)pyrrolidine-2-carboxamide hydrochloride]
- GI50 [1]: ≤ 0.1 µM
- GI50 at 72 h [3]: > 10 µM
